{"source": "patent US20130253047A1", "about": "(priority 2006, published 2013)"}
{"system": "H5N1", "format": "cell-based"}
{"molecule": "O=C(O[C@@H]1Cc2c(O)cc(O)cc2O[C@@H]1c1cc(=O)c(O)c2c(O)c(O)cc([C@H]3Oc4cc(O)cc(O)c4C[C@H]3O)c2c1)c1cc(O)c(O)c(O)c1", "note": "[theaflavin-3 gallate]", "inhibition of H5N1 infections in mammalian cells by blocking the attachment and entry into the cells": "inhibits H5N1 infections in mammalian cells"}
{"molecule": "O=c1c(O)cc([C@H]2Oc3cc(O)cc(O)c3C[C@H]2O)cc2c([C@H]3Oc4cc(O)cc(O)c4C[C@H]3O)cc(O)c(O)c12", "note": "[theaflavin]", "inhibition of H5N1 infections in mammalian cells by blocking the attachment and entry into the cells": "inhibits H5N1 infections in mammalian cells"}
{"molecule": "(−)-epigallocatechin gallate", "inhibition of H5N1 infections in mammalian cells by blocking the attachment and entry into the cells": "inhibits H5N1 infections in mammalian cells"}
{"molecule": "theaflavin-3,3′-digallate", "inhibition of H5N1 infections in mammalian cells by blocking the attachment and entry into the cells": "inhibits H5N1 infections in mammalian cells"}
{"molecule": "theaflavin-3′-gallate", "inhibition of H5N1 infections in mammalian cells by blocking the attachment and entry into the cells": "inhibits H5N1 infections in mammalian cells"}
